The term melting point denotes the temperature, or range, at which the solid turns liquid.

The source of these data is patent US7084167B2, “Calcium receptor active molecules and method for preparing same” (Centre National de la Rechereche Scientifique (CNRS), priority 2000, dated 2006).

In one series the test system is CHO (WT*) cells. Nature of the series: Accumulation of tritiated inositol phosphates in control CHO(WT*) cells not expressing the CaSR. The class given is cell-based, Chinese hamster. As to conditions: Cricetulus griseus, 1 h; compound 10 μM; basal level at 2 mM Ca2+ = 100%; read-out: Accumulation of (3H)-IP % of basal level, CHO (WT*). On the procedure:
(§1) The accumulation of tritiated inositol phosphates is expressed as a percentage of the basal level observed in the presence of 2 mM Ca^2+ (100%) in CHO (WT^+) or CHO(CaSR) cells.

Another series has as its target T1, CaSR (Rattus norvegicus, UniProt P48442).
T1 construct: expressed in transfected cells; host or cells: CHO (Chinese hamster ovary) cells, CHO(CaSR)
T1 sequence (P48442 20-1079): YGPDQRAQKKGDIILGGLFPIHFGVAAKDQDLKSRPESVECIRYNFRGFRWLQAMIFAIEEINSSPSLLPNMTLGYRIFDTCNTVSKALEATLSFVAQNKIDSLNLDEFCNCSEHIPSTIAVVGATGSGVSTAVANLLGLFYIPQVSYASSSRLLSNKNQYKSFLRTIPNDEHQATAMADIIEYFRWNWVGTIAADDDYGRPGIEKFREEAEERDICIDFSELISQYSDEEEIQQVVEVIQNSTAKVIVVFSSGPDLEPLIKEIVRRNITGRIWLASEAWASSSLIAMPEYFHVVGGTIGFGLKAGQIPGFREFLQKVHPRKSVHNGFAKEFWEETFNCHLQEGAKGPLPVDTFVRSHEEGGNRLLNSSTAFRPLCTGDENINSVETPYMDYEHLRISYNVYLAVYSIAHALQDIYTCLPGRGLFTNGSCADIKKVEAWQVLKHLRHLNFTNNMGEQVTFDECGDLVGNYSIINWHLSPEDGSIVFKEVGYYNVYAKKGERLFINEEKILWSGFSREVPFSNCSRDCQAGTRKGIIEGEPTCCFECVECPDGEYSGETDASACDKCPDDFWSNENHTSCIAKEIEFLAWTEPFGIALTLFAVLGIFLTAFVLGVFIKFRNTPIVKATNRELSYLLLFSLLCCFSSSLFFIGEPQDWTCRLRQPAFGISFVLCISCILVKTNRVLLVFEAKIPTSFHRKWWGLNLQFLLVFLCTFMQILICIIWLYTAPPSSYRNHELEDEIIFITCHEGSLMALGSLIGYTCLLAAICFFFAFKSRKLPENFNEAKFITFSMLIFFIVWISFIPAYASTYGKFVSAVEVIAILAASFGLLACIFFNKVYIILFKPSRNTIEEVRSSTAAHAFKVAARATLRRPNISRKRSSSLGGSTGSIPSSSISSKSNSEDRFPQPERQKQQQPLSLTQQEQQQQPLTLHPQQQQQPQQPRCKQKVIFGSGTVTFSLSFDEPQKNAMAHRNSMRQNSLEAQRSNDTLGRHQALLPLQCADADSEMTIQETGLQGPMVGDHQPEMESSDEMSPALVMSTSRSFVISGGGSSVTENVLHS
Nature of the series: Accumulation of tritiated inositol phosphates in CHO(CaSR) cells. As to conditions: for activation at 1 µM / activity greater than that of calcium (10 mM): compound 1 μM; for activation at 1 µM / activation at 10 µM: CHO(CaSR) cells, read-out: Accumulation of (3H)-IP % of the 10 mM Ca2+ response ± S.E.; for activation at 10 µM / activity at 10 µM: compound 10 μM; for activation at 10 µM: in the presence of 2 mM Ca2+; for activity at 10 µM: basal level at 2 mM Ca2+ = 100%, read-out: Accumulation of (1H)-IP % of basal level, CHO (CaSR). The class given is cell-based.
Excerpt: The complementary DNA encoding rat CaSR has been isolated from a rat striatum cDNA library (Ruat et al, Proc. Natl. Acad. Sci., 1995). This receptor is identical, in terms of its amino acid sequence, to that expressed in the other tissues. Transfected Chinese hamster ovary (CHO) cells expressing rat CaSR (CHO(CaSR)) have been characterized and the chemical signals (second messengers) induced by activation of this receptor have been analyzed. Thus, a biochemical test for measuring the accumulation of tritiated inositol phosphates, [^3H]IPs, in response to activation of the receptor has been developed (Ruat et al, J. Biol. Chem., 1996; Ferry et al, Biochem. Biophys. Res. Common., 1997).
The calcimimetic activity of the compounds was estimated by measuring the accumulation of tritiated inositol phosphates, […] Ca^2+, in CHO(CaSR) cells (Ferry et al, Biochem Biophys Res Commun, 1997).
This activation was compared with that induced by the compound NPS-R-568, a reference calcimimetic used at a concentration of 10 μM (Table 1) (Ferry et al, Biochem Biophys Res Commun, 1997; Nemeth et al, Proc Natl Acad Sci USA, 1997).
The calcimimetic activity of the PHD/AK compounds is compared with that of a reference compound, NPS-R-568, used at the same concentration and under the same experimental conditions. This activity is expressed as a percentage of the activity of 10 mM of Ca^2+. The means±standard errors of the means of 2 to 5 independent manipulations are indicated. The experiments were carried out in the presence of 2 mM of Ca^2+.
as §1

In series [1] the target is T2, receptors of the parathyroid (Rattus norvegicus, UniProt P48442).
T2 construct: from tissue; host or cells: parathyroid gland of rats (in vivo)
T2 sequence (P48442 20-1079): T1 sequence (P48442 20-1079)
To be noted: rats; cited from earlier work.

The conditions of series [2]: oral, menopausal women with primary hyperparathyroidism; cited from earlier work.
For series [3] the following is noted: rats; cited from earlier work.
The conditions of series [4]: clinical trials phase I-II; cited from earlier work.
For series [5] the following is noted: patients (men) suffering from chronic renal failure; cited from earlier work.

Regarding `C[C@H](NCc1cc2ccccc2[nH]1)c1cccc2ccccc12` [PHD 337-S], the activity at 10 µM in the series on CHO (WT*) cells came out at 132 ± 1%. Besides, at CaSR, the activation at 1 µM is 3 ± 2%, the activation at 10 µM was 32 ± 5% and the activity at 10 µM turned out to be 225 ± 7%.

`COc1ccc2[nH]c(CNC(C)c3cccc4ccccc34)cc2c1` (stereo not drawn) [PHD 359]: the activity at 10 µM with CHO (WT*) cells came out at 117 ± 8%. Further, on CaSR, the activation at 10 µM was determined as 55 ± 5% and the activity at 10 µM stood at 303 ± 42%.

For the compound `COc1cccc([C@@H](C)NCCCc2ccccc2)c1` [NPS R-467], the “selectivity, receptors of the parathyroid compared with those of the thyroid gland” value in series [1] is listed as “more selective”.

`C[C@@H](NCc1cc2ccccc2[nH]1)c1cccc2ccccc12.Cl.Cl` [PHD 337-R, (R)-N-[(indole-2-yl)methyl]-N-[1-(1-naphthyl)ethyl]amine.HCl] displayed a melting point of 204 °C. In addition, the activity at 10 µM with CHO (WT*) cells was 130 ± 9%. For the same compound, on CaSR, the “activity greater than that of calcium (10 mM)” value is listed as 50%, the activation at 1 µM was determined as 73 ± 10% and the activity at 10 µM is 588 ± 129%.

Turning to `COc1cccc([C@@H](C)NCc2cc3ccccc3[nH]2)c1` [PHD 356], in the series with CHO (WT*) cells, the activity at 10 µM came to 151 ± 7%. Moreover, at CaSR, the “activity greater than that of calcium (10 mM)” value was 50%, the activation at 1 µM amounted to 76 ± 1%, the activation at 10 µM fell in the range of 90 to 100% and the activity at 10 µM stood at 482 ± 58%.

With `CC(NCc1cc2cc(F)ccc2[nH]1)c1cccc2ccccc12` (stereo not drawn) [PHD 361], the activity at 10 µM in the series with CHO (WT*) cells came out at 133 ± 3%. On CaSR, the activation at 10 µM was 87 ± 7% and the activity at 10 µM is 420 ± 70%.

In the case of `CC(NCC1Cc2ccccc2N1)c1cccc2ccccc12` (stereo not drawn) [PHD 368], the activity at 10 µM in the series with CHO (WT*) cells is 126 ± 6%. For the same compound, on CaSR, the activation at 10 µM turned out to be 77 ± 1% and the activity at 10 µM stood at 388 ± 85%.

Consider `COc1cccc([C@@H](C)NCCCc2ccccc2Cl)c1.Cl` [NPS R-568], for which, in series [2], the “concentrations of PTH” value is given as “lower” and the “concentrations of free serum Ca2+ ions” value is given as “lower”. Besides, in series [3], the osteitis fibrosa entry is “reduces or eliminates osteitis fibrosa”. For the same compound, the bioavailability result in series [4] is recorded as “low”. The activity at 10 µM in the series with CHO (WT*) cells was determined as 110 ± 9%. On CaSR, the activation at 10 µM is 106 ± 15% and the activity at 10 µM stood at 454 ± 33%. In addition, the PTH concentrations entry in series [5] is on record as “reduces PTH concentrations”.

With `CC(NCc1cc2cc(Cl)ccc2[nH]1)c1cccc2ccccc12.Cl.Cl` (stereo not drawn) [PHD 363], the activity at 10 µM in the series on CHO (WT*) cells stood at 125 ± 12%. For the same compound, at CaSR, the “activity greater than that of calcium (10 mM)” value is on record as “less active”, the activation at 1 µM was 6 ± 3%, the activation at 10 µM came out at 60 ± 1% and the activity at 10 µM turned out to be 325 ± 67%.

In the case of `CC(NCc1cc2ccccc2n1C)c1cccc2ccccc12` (stereo not drawn) [AK 43], the activity at 10 µM in the series with CHO (WT*) cells was found to be 109 ± 2%. On CaSR, the activation at 10 µM amounted to 79 ± 13% and the activity at 10 µM is 401 ± 16%.

For `COc1ccc(S(=O)(=O)n2c(CNC(C)c3cccc4ccccc34)cc3ccccc32)cc1OC` (stereo not drawn) [PHD 338], the activity at 10 µM in the series with CHO (WT*) cells came to 111 ± 10%; at CaSR, 202 ± 9%. At CaSR, the activation at 10 µM was found to be 54 ± 5%.

As for `CC(NCc1cc2ccccc2[nH]1)c1cccc2ccccc12.Cl.Cl` (stereo not drawn) [PHD 337], the activity at 10 µM in the series with CHO (WT*) cells was 147 ± 14%. At CaSR, the “activity greater than that of calcium (10 mM)” value came to 50%, the activation at 1 µM was determined as 69 ± 9%, the activation at 10 µM fell in the range of 90 to 100% and the activity at 10 µM amounted to 444 ± 101%.
